Measured values from ChEMBL document CHEMBL4184336, “Structure-Guided Modification of Heterocyclic Antagonists of the P2Y14 Receptor” (J Med Chem, 2018).

Columns and labels:
P2Y purinoceptor 14 = target: T1, P2Y purinoceptor 14 (Homo sapiens, UniProt Q15391)
T1 sequence (Q15391 whole entry): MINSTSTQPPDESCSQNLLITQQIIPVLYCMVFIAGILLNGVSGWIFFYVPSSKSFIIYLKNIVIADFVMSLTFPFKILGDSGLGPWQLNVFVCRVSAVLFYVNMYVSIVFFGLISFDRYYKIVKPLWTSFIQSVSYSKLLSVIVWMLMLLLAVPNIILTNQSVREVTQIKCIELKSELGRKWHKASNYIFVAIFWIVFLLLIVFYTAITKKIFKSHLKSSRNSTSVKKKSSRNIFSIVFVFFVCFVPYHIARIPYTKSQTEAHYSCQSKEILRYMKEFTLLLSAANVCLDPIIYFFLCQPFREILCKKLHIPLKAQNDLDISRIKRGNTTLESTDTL
Description: Displacement of MRS4174 from human P2Y14R expressed in CHO cells preincubated for 30 mins followed by MRS4174 addition measured after 30 mins by flow cytometric method

[1] = target: Sodium-dependent noradrenaline transporter (Homo sapiens, UniProt P23975); assay: Displacement of [3H]-Nisoxetine from human NET expressed in HEK293 cell membranes after 90 mins by scintillation counting method
Sequence of Sodium-dependent noradrenaline transporter (P23975 whole entry): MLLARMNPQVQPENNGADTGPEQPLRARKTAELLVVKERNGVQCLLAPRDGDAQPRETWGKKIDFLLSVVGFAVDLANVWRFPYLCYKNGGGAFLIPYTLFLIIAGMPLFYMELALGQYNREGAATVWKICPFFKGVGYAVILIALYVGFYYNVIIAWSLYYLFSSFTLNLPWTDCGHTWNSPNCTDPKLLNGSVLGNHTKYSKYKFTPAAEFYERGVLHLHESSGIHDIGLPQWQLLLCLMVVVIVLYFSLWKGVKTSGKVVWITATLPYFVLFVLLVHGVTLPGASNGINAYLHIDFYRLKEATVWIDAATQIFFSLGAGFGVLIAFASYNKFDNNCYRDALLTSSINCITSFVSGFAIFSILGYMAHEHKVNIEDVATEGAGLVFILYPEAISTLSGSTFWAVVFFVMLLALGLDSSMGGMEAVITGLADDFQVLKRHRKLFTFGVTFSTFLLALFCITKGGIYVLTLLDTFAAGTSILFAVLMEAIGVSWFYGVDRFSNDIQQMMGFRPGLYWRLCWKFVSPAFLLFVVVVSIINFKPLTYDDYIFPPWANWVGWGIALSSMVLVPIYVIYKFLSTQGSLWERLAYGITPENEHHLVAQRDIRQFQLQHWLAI

Row | Compound | IC50 (P2Y purinoceptor 14) [µM] | Ki [1] [µM]
1 | O=C(O)c1cc(-c2ccc(CN3CCNCC3)s2)cc(-n2cc(-c3ccc(C(F)(F)F)cc3)nn2)c1 | 1.96 | –
2 | CNC(=O)c1ccc(-c2cc(C(=O)O)cc(-n3cc(-c4ccc(C(F)(F)F)cc4)nn3)c2)cc1 | 0.563 | –
3 | O=C(O)c1cc(O)cc(-n2cc(-c3ccc(C(F)(F)F)cc3)nn2)c1 | 16.4 | –
4 | CC(C)(C)OC(=O)NCCNS(=O)(=O)c1ccc(-c2cc(C(=O)O)cc(-n3cc(-c4ccc(C(F)(F)F)cc4)nn3)c2)s1 | 5.92 | –
5 | NCCCCNS(=O)(=O)c1ccc(-c2cc(C(=O)O)cc(-n3cc(-c4ccc(C(F)(F)F)cc4)nn3)c2)s1 | 2.18 | –
6 | NCCCNC(=O)c1ccc(-c2cc(C(=O)O)cc(-n3cc(-c4ccc(C(F)(F)F)cc4)nn3)c2)o1 | 10.9 | –
7 | O=C(O)c1cc(O)c2ccc(-c3ccc(C(F)(F)F)cc3)cc2c1 | – | 5.8
8 | CC(C)(C)OC(=O)N1CCN(C(=O)c2ccc(-c3cc(C(=O)O)cc(-n4cc(-c5ccc(C(F)(F)F)cc5)nn4)c3)s2)CC1 | 53 | –
9 | CC(C)(C)OC(=O)N1CCN(Cc2ccc(-c3cc(C(=O)O)cc(-n4cc(-c5ccc(C(F)(F)F)cc5)nn4)c3)s2)CC1 | 67.2 | –
10 | CC(C)(C)OC(=O)N1CCN(S(=O)(=O)c2ccc(-c3cc(C(=O)O)cc(-n4cc(-c5ccc(C(F)(F)F)cc5)nn4)c3)cc2)CC1 | > 50 | –
11 | NCCCNC(=O)c1cc(-c2cc(C(=O)O)cc(-n3cc(-c4ccc(C(F)(F)F)cc4)nn3)c2)cs1 | 1.75 | –
12 | FC(F)(F)c1ccc(-c2cn(-c3cc(-c4ccc(C5CCNCC5)cc4)cc(-c4nnn[nH]4)c3)nn2)cc1 | 0.958 | –
13 | NCCCNC(=O)c1csc(-c2cc(C(=O)O)cc(-n3cc(-c4ccc(C(F)(F)F)cc4)nn3)c2)c1 | 0.735 | –
14 | NC(=O)c1ccc(-c2cc(C(=O)O)cc(-n3cc(-c4ccc(C(F)(F)F)cc4)nn3)c2)cn1 | 1.41 | –
15 | CC(C)(C)NC(=O)c1ccc(-c2cc(C(=O)O)cc(-n3cc(-c4ccc(C(F)(F)F)cc4)nn3)c2)cc1 | 7.53 | –
16 | NC(=O)c1ccc(-c2cc(-c3nnn[nH]3)cc(-n3cc(-c4ccc(C(F)(F)F)cc4)nn3)c2)cc1 | 2.43 | –
17 | CC(C)(C)NC(=O)c1ccc(-c2cc(-c3nnn[nH]3)cc(-n3cc(-c4ccc(C(F)(F)F)cc4)nn3)c2)cc1 | 20.7 | –
18 | CC(C)(C)OC(=O)N1CCN(S(=O)(=O)c2ccc(-c3cc(C(=O)O)cc(-n4cc(-c5ccc(C(F)(F)F)cc5)nn4)c3)s2)CC1 | 54.7 | –
19 | NCCNS(=O)(=O)c1ccc(-c2cc(C(=O)O)cc(-n3cc(-c4ccc(C(F)(F)F)cc4)nn3)c2)s1 | 2.26 | –
20 | CC(C)(C)OC(=O)NCCCCNS(=O)(=O)c1ccc(-c2cc(C(=O)O)cc(-n3cc(-c4ccc(C(F)(F)F)cc4)nn3)c2)s1 | 13.6 | –
21 | NC(=O)c1ccc(-c2cc(C(=O)O)cc(-n3cc(-c4ccc(C(F)(F)F)cc4)nn3)c2)o1 | 3.11 | –
